Assays:
[1] = tested on: inducible caspase-9 suicide gene in iC9/CAR.19/IL-15^+ T cells; conditions: previous observation (ref 27); cited from earlier work
[2] = tested on: iC9/CAR.19/IL-15^+ T cells expressing eGFP-FFLuc; assay: In vivo validation of the suicide gene, Raji-engrafted mice with labeled iC9/CAR.19/IL-15^+ T cells; set-up: species or system SCID mice; conditions: Raji i.v., after CID i.p.
Procedure: In vivo validation of the suicide gene. To evaluate the functionality of the suicide gene, mice bearing tumor cells and receiving iC9/CAR.19/IL-15^+ T cells labeled with the eGFP-FFluc gene were treated with CID ([…]) i.p. 2 to 3 doses every other day.^27 CID treatment was initiated when the T-cell bioluminescent signal was exponentially increasing, indicating active expansion of the transgenic cells. Mice were then imaged as described above.
Mice were engrafted i.v. with Raji tumor cells and then infused with eGFP-FFLuc labeled iC9/CAR.19/IL-15^+ T cells. These cells localized and expanded at the tumor site by day 14 after infusion as assessed by bioluminescence measurement (FIG. 6b).

CC[C@H](C(=O)N1CCCC[C@H]1C(=O)O[C@H](CCc1ccc(OC)c(OC)c1)c1cccc(OCC(=O)NCC(CNC(=O)COc2cccc([C@@H](CCc3ccc(OC)c(OC)c3)OC(=O)[C@@H]3CCCCN3C(=O)[C@@H](CC)c3cc(OC)c(OC)c(OC)c3)c2)CN(C)C)c1)c1cc(OC)c(OC)c(OC)c1 [CID, AP20187]
Fraction of cells that escape apoptosis/necrosis shortly after exposure to the dimerizer drug [1]: < 10%
T-cell bioluminescence after administration of the CID [2]: 1.3×10^5±3×10^4 p/s/cm^2/sr

Reference: patent publication US20130071414A1, “ENGINEERED CD19-SPECIFIC T LYMPHOCYTES THAT COEXPRESS IL-15 AND AN INDUCIBLE CASPASE-9 BASED SUICIDE GENE FOR THE TREATMENT OF B-CELL MALIGNANCIES” (priority 2011, published 2013)
